Results: patent US8648094B2, “IAP BIR domain binding compounds” (Pharmascience, Inc., priority 2006, dated 2014)

Test system: SKOV-3 cells
Test: Survival MTT assay
Type: cell-based
Conditions: Homo sapiens, SK-OV-3, 72 hours
Procedure: One day prior the treatment with compound, 2000 to 4000 cells per well were plated in a tissue culture treated 96 well format dish with 100 uL of media and incubated at 37° C., 5% CO2. On the day of compound treatment, compounds were diluted with cell culture media to a working stock concentration of 2×. 100 ul of diluted compound were then added to each well. The treated plate was incubated for 72 hours at 37° C., 5% CO2. Upon incubation, the cell viability was assessed as follows; 20 uL of MTT reagent (5 mg/mL) were added per well to cell plate. The plate was incubated for 2 hrs at 37° C. in presence of 5% CO2. The supernatant was then removed from the plate and 100 uL of isopropanol was added. The absorbance was measured in a TECAN spectrophotometer at 570 nm. The percentage of viability was expressed in percentage of the signal obtained with non treated cells.

CN[C@@H](C)C(=O)N[C@H](C(=O)N1CCC[C@H]1CN(CCc1ccccc1)C(=O)c1ccc(C(=O)N(CCc2ccccc2)C[C@@H]2CCCN2C(=O)[C@@H](NC(=O)[C@H](C)NC)C(C)(C)C)cc1)C(C)(C)C [Compound 1]
EC50: 10 to 25 nM

CN[C@@H](C)C(=O)N[C@H](C(=O)N1CCC[C@H]1CN(CCc1ccccc1)C(=O)CCCCCCCCC(=O)N(CCc1ccccc1)C[C@@H]1CCCN1C(=O)[C@@H](NC(=O)[C@H](C)NC)C(C)(C)C)C(C)(C)C [Compound 2]
EC50: < 10 nM

CN[C@@H](C)C(=O)N[C@H](C(=O)N1CCC[C@H]1CN(CCc1ccccc1)C(=O)CCCC(=O)N(CCc1ccccc1)C[C@@H]1CCCN1C(=O)[C@@H](NC(=O)[C@H](C)NC)C(C)(C)C)C(C)(C)C [Compound 3]
EC50: 10 to 25 nM

CN[C@@H](C)C(=O)N[C@H](C(=O)N1CCC[C@H]1CN(CCc1ccccc1)C(=O)c1ccc(-c2ccc(C(=O)N(CCc3ccccc3)C[C@@H]3CCCN3C(=O)[C@@H](NC(=O)[C@H](C)NC)C(C)(C)C)cc2)cc1)C(C)(C)C [Compound 4]
EC50: < 10 nM

CN[C@@H](C)C(=O)N[C@H](C(=O)N1CCC[C@H]1CN(CCc1ccccc1)C(=O)CCC(=O)N(CCc1ccccc1)C[C@@H]1CCCN1C(=O)[C@@H](NC(=O)[C@H](C)NC)C(C)(C)C)C(C)(C)C [Compound 6]
EC50: > 25 nM

CN[C@@H](C)C(=O)N[C@H](C(=O)N1CCC[C@H]1CN(CCc1ccccc1)C(=O)CCCCCCC(=O)N(CCc1ccccc1)C[C@@H]1CCCN1C(=O)[C@@H](NC(=O)[C@H](C)NC)C(C)(C)C)C(C)(C)C [Compound 7]
EC50: 10 to 25 nM

CN[C@@H](C)C(=O)N[C@@H](CC1CCCCC1)C(=O)N1CCC[C@H]1CN(CCc1ccccc1)C(=O)CCCCCCCCC(=O)N(CCc1ccccc1)C[C@@H]1CCCN1C(=O)[C@H](CC1CCCCC1)NC(=O)[C@H](C)NC [Compound 9]
EC50: > 25 nM

CN[C@@H](C)C(=O)N[C@H](C(=O)N1CCC[C@H]1CN(CCc1ccccc1)S(=O)(=O)c1ccc(-c2ccc(S(=O)(=O)N(CCc3ccccc3)C[C@@H]3CCCN3C(=O)[C@@H](NC(=O)[C@H](C)NC)C(C)(C)C)cc2)cc1)C(C)(C)C [Compound 13]
EC50: 10 to 25 nM

CN[C@@H](C)C(=O)N[C@H](C(=O)N1CCC[C@H]1CN(CCc1ccccc1)C(=O)CCCCCCCCCCC(=O)N(CCc1ccccc1)C[C@@H]1CCCN1C(=O)[C@@H](NC(=O)[C@H](C)NC)C(C)(C)C)C(C)(C)C [Compound 18]
EC50: 10 to 25 nM

CN[C@@H](C)C(=O)N[C@H](C(=O)N1CCC[C@H]1CN(C[C@@H](C)c1ccccc1)C(=O)CCCCCCCCC(=O)N(C[C@@H]1CCCN1C(=O)[C@@H](NC(=O)[C@H](C)NC)C(C)(C)C)C[C@@H](C)c1ccccc1)C(C)(C)C [Compound 22]
EC50: > 25 nM

CN[C@@H](C)C(=O)N[C@H](C(=O)N1CCC[C@H]1CN(CCc1ccccc1)C(=O)c1ccc(Oc2ccc(C(=O)N(CCc3ccccc3)C[C@@H]3CCCN3C(=O)[C@@H](NC(=O)[C@H](C)NC)C(C)(C)C)cc2)cc1)C(C)(C)C [Compound 27]
EC50: > 25 nM

CN[C@@H](C)C(=O)N[C@H](C(=O)N1CCC[C@H]1CN(CCc1ccccc1)S(=O)(=O)c1cccc(S(=O)(=O)N(CCc2ccccc2)C[C@@H]2CCCN2C(=O)[C@@H](NC(=O)[C@H](C)NC)C(C)(C)C)c1)C(C)(C)C [Compound 36]
EC50: < 10 nM

CN[C@@H](C)C(=O)N[C@H](C(=O)N1CCC[C@H]1CN(CCc1ccccc1)C(=O)CN(C)Cc1ccc(CN(C)CC(=O)N(CCc2ccccc2)C[C@@H]2CCCN2C(=O)[C@@H](NC(=O)[C@H](C)NC)C(C)(C)C)cc1)C(C)(C)C [Compound 43]
EC50: 10 to 25 nM

CN[C@@H](C)C(=O)N[C@H](C(=O)N1CCC[C@H]1CN(CCc1ccccc1F)C(=O)CCCCCCCCC(=O)N(CCc1ccccc1F)C[C@@H]1CCCN1C(=O)[C@@H](NC(=O)[C@H](C)NC)C(C)(C)C)C(C)(C)C [Compound 46]
EC50: < 10 nM

CN[C@@H](C)C(=O)N[C@H](C(=O)N1CCC[C@H]1CN(CCc1ccc(F)cc1)C(=O)CCC(=O)N(CCc1ccc(F)cc1)C[C@@H]1CCCN1C(=O)[C@@H](NC(=O)[C@H](C)NC)C(C)(C)C)C(C)(C)C [Compound 48]
EC50: 10 to 25 nM

CN[C@@H](C)C(=O)N[C@H](C(=O)N1CCC[C@H]1CN(CCc1ccccc1)C(=O)CNC(=O)CCCCC(=O)NCC(=O)N(CCc1ccccc1)C[C@@H]1CCCN1C(=O)[C@@H](NC(=O)[C@H](C)NC)C(C)(C)C)C(C)(C)C [Compound 50]
EC50: 10 to 25 nM

CN[C@@H](C)C(=O)N[C@H](C(=O)N1CCC[C@H]1CN(CCc1ccc(F)cc1)S(=O)(=O)c1cccc(S(=O)(=O)N(CCc2ccc(F)cc2)C[C@@H]2CCCN2C(=O)[C@@H](NC(=O)[C@H](C)NC)C(C)(C)C)c1)C(C)(C)C [Compound 57]
EC50: 10 to 25 nM

CN[C@@H](C)C(=O)N[C@H](C(=O)N1CCC[C@H]1CN(CCc1ccc(F)cc1)C(=O)c1ccc(-c2ccc(C(=O)N(CCc3ccc(F)cc3)C[C@@H]3CCCN3C(=O)[C@@H](NC(=O)[C@H](C)NC)C(C)(C)C)cc2)cc1)C(C)(C)C [Compound 58]
EC50: 10 to 25 nM

CN[C@@H](C)C(=O)N[C@H](C(=O)N1CCC[C@H]1CN(CCc1ccccc1)C(=O)[C@@H](C)NC(=O)c1ccc(C(=O)N[C@H](C)C(=O)N(CCc2ccccc2)C[C@@H]2CCCN2C(=O)[C@@H](NC(=O)[C@H](C)NC)C(C)(C)C)cc1)C(C)(C)C [Compound 59]
EC50: < 10 nM

CN[C@@H](C)C(=O)N[C@H](C(=O)N1CCC[C@H]1CN(CCc1ccccc1)C(=O)[C@H](C)NC(=O)c1ccc(C(=O)N[C@@H](C)C(=O)N(CCc2ccccc2)C[C@@H]2CCCN2C(=O)[C@@H](NC(=O)[C@H](C)NC)C(C)(C)C)cc1)C(C)(C)C [Compound 62]
EC50: > 25 nM

CN[C@@H](C)C(=O)N[C@H](C(=O)N1CCC[C@H]1CN(CCc1ccccc1)C(=O)CNC(=O)c1ccc2cc(C(=O)NCC(=O)N(CCc3ccccc3)C[C@@H]3CCCN3C(=O)[C@@H](NC(=O)[C@H](C)NC)C(C)(C)C)ccc2c1)C(C)(C)C [Compound 63]
EC50: < 10 nM

CN[C@@H](C)C(=O)N[C@H](C(=O)N1CCC[C@H]1CN(CCc1ccccc1)C(=O)c1ccc(-c2cccc(C(=O)N(CCc3ccccc3)C[C@@H]3CCCN3C(=O)[C@@H](NC(=O)[C@H](C)NC)C(C)(C)C)c2)cc1)C(C)(C)C [Compound 64]
EC50: 10 to 25 nM

CN[C@@H](C)C(=O)N[C@H](C(=O)N1CCC[C@H]1CN(CCc1ccc(F)cc1)C(=O)CNC(=O)c1ccc(C(=O)NCC(=O)N(CCc2ccc(F)cc2)C[C@@H]2CCCN2C(=O)[C@@H](NC(=O)[C@H](C)NC)C(C)(C)C)cc1)C(C)(C)C [Compound 71]
EC50: < 10 nM

CN[C@@H](C)C(=O)N[C@H](C(=O)N1CCC[C@H]1CN(CCc1ccc(F)cc1)C(=O)CNC(=O)C(=O)NCC(=O)N(CCc1ccc(F)cc1)C[C@@H]1CCCN1C(=O)[C@@H](NC(=O)[C@H](C)NC)C(C)(C)C)C(C)(C)C [Compound 73]
EC50: < 10 nM

CN[C@@H](C)C(=O)N[C@H](C(=O)N1CCC[C@H]1CN(Cc1cccc(-c2ccccc2)c1)C(=O)CCCCCCCCC(=O)N(Cc1cccc(-c2ccccc2)c1)C[C@@H]1CCCN1C(=O)[C@@H](NC(=O)[C@H](C)NC)C(C)(C)C)C(C)(C)C [Compound 75]
EC50: 10 to 25 nM

CN[C@@H](C)C(=O)N[C@H](C(=O)N1CCC[C@H]1CN(CCc1ccc(F)cc1)C(=O)CNC(=O)c1ccc(-c2ccc(C(=O)NCC(=O)N(CCc3ccc(F)cc3)C[C@@H]3CCCN3C(=O)[C@@H](NC(=O)[C@H](C)NC)C(C)(C)C)cc2)cc1)C(C)(C)C [Compound 76]
EC50: < 10 nM

CN[C@@H](C)C(=O)N[C@H](C(=O)N1CCC[C@H]1CN(CCc1ccccc1)C(=O)CN(C)C(=O)c1ccc(-c2ccc(C(=O)N(C)CC(=O)N(CCc3ccccc3)C[C@@H]3CCCN3C(=O)[C@@H](NC(=O)[C@H](C)NC)C(C)(C)C)cc2)cc1)C(C)(C)C [Compound 77]
EC50: 10 to 25 nM

CN[C@@H](C)C(=O)N[C@H](C(=O)N1CCC[C@H]1C(=O)N(CCc1ccccc1)Cc1ccc(CN(CCc2ccccc2)C(=O)[C@@H]2CCCN2C(=O)[C@@H](NC(=O)[C@H](C)NC)C(C)(C)C)cc1)C(C)(C)C [Compound 79]
EC50: 10 to 25 nM

CN[C@@H](C)C(=O)N[C@H](C(=O)N1CCC[C@H]1CN(CCc1ccccc1)C(=O)[C@H]1CCCN1C(=O)c1ccc(C(=O)N2CCC[C@@H]2C(=O)N(CCc2ccccc2)C[C@@H]2CCCN2C(=O)[C@@H](NC(=O)[C@H](C)NC)C(C)(C)C)cc1)C(C)(C)C [Compound 81]
EC50: > 25 nM

CN[C@@H](C)C(=O)N[C@H](C(=O)N1CCC[C@H]1CN(CCc1ccc(F)cc1)C(=O)CNC(=O)c1cccc(C(=O)NCC(=O)N(CCc2ccc(F)cc2)C[C@@H]2CCCN2C(=O)[C@@H](NC(=O)[C@H](C)NC)C(C)(C)C)c1)C(C)(C)C [Compound 83]
EC50: < 10 nM

CN[C@@H](C)C(=O)N[C@H](C(=O)N1CCC[C@H]1CN(CCc1ccccc1)C(=O)CNC(=O)c1ccc2ccc(C(=O)NCC(=O)N(CCc3ccccc3)C[C@@H]3CCCN3C(=O)[C@@H](NC(=O)[C@H](C)NC)C(C)(C)C)cc2c1)C(C)(C)C [Compound 85]
EC50: < 10 nM

CN[C@@H](C)C(=O)N[C@H](C(=O)N1CCC[C@H]1CN(CCc1ccccc1)C(=O)CNC(=O)c1cccc(C(=O)NCC(=O)N(CCc2ccccc2)C[C@@H]2CCCN2C(=O)[C@@H](NC(=O)[C@H](C)NC)C(C)(C)C)n1)C(C)(C)C [Compound 88]
EC50: > 25 nM

CN[C@@H](C)C(=O)N[C@H](C(=O)N1CCC[C@H]1CN(CCc1ccccc1)S(=O)(=O)c1ccc2ccc(S(=O)(=O)N(CCc3ccccc3)C[C@@H]3CCCN3C(=O)[C@@H](NC(=O)[C@H](C)NC)C(C)(C)C)cc2c1)C(C)(C)C [Compound 90]
EC50: 10 to 25 nM

CN[C@@H](C)C(=O)N[C@H](C(=O)N1CCC[C@H]1CN(CCc1ccccc1)S(=O)(=O)c1ccc2cc(S(=O)(=O)N(CCc3ccccc3)C[C@@H]3CCCN3C(=O)[C@@H](NC(=O)[C@H](C)NC)C(C)(C)C)ccc2c1)C(C)(C)C [Compound 92]
EC50: < 10 nM
